What was measured:
[1] = test system: oval-leafed pondweed; test: Test Example 2: herbicidal activity, application during weed generation under submerged conditions (Table 17, symbol C); format: in vivo, oval-leafed pondweed (Monochoria vaginalis); conditions: AAH 320 g/ha; application during weed generation, submerged conditions
Procedure, shortened: (§1)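 3-wk visual-criteria score after one water-surface dose. Emulsion formulation, water-diluted to set rate; applied at 1–2 leaf stage; alluvial soil, 4 cm standing water; seeds co-sown; greenhouse 25–30° C.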

[2] = test system: Japanese bulrush; test: Test Example 1: herbicidal activity, application before weed generation under submerged conditions (Table 16, symbol B); format: in vivo, Japanese bulrush (Schoenoplectus juncoides); conditions: 320 g/ha applied herbicide
Procedure, shortened: (§2)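 Emulsion formulation, water-diluted to set dose, was put onto the flooded surface (4 cm depth, alluvial soil) the same day weeds were sown and 2.5-leaf rice transplanted. After 3 weeks at 25-30 °C under glass, each species was rated 0 (≤5% kill) to 5 (≥90% kill).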

[3] = test system: late watergrass; test: Test Example 1: herbicidal activity, application before weed generation under submerged conditions (Table 16, symbol A); format: in vivo, late watergrass (Echinochloa oryzicola); conditions: 320 g/ha applied herbicide
Procedure, shortened: as §2

[4] = test system: windgrass; test: Test Example 4: herbicidal effect by soil treatment (Table 19, symbol L); format: in vivo, windgrass (Apera spica-venti); conditions: amount of applied herbicide 320 g/ha
Procedure, shortened: (§3)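 Soil-surface application: an emulsion agent diluted with water to the predetermined dose is sprayed uniformly over seeds lying under roughly 1.5 cm of sterilized diluvial soil. Boxes stay in a greenhouse at 25° C. to 30° C. Three weeks later, each species is graded on previously defined criteria.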

[5] = test system: late watergrass; test: Test Example 2: herbicidal activity, application during weed generation under submerged conditions (Table 17, symbol A); format: in vivo, late watergrass (Echinochloa oryzicola); conditions: AAH 320 g/ha; application during weed generation, submerged conditions
Procedure, shortened: as §1

[6] = test system: Italian ryegrass; test: Test Example 5: herbicidal effect by foliage application, plastic box (Table 20, symbol K); format: in vivo, Italian ryegrass (Lolium multiflorum); conditions: foliage application, AAH 320 g/ha, evaluated three weeks after application
Procedure, shortened: (§4)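 Sow seeds spot-wise in sterilized diluvial soil; cover with ~1.5 cm soil. Grow 14 days in greenhouse, 25° C. to 30° C. Spray foliage with emulsion diluted to predetermined amount. Rate effect after 3 weeks.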

[7] = test system: rice flat sedge; test: Test Example 3: herbicidal effect by foliage application, Wagner pot (Table 18, symbol E); format: in vivo, rice flat sedge (Cyperus iria); conditions: amount of applied herbicide 320 g/ha
Procedure, shortened: (§5)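 Plants were sown in alluvial soil held under 0.1–0.5 cm standing water and grown 14 days in a greenhouse at 25–30 °C. An emulsifiable formulation, water-diluted to the set dose, was then sprayed onto the foliage, and effects were scored three weeks later using previously defined criteria.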

[8] = test system: barnyard grass; test: Test Example 5: herbicidal effect by foliage application, plastic box (Table 20, symbol H); format: in vivo, barnyard grass (Echinochloa crus-galli); conditions: foliage application, AAH 320 g/ha, evaluated three weeks after application
Procedure, shortened: as §4

[9] = test system: redroot pigweed; test: Test Example 5: herbicidal effect by foliage application, plastic box (Table 20, symbol N); format: in vivo, redroot pigweed (Amaranthus retroflexus); conditions: foliage application, AAH 320 g/ha, evaluated three weeks after application
Procedure, shortened: as §4

[10] = test system: green foxtail; test: Test Example 5: herbicidal effect by foliage application, plastic box (Table 20, symbol G); format: in vivo, green foxtail (Setaria viridis); conditions: foliage application, AAH 320 g/ha, evaluated three weeks after application
Procedure, shortened: as §4

[11] = test system: barnyard grass; test: Test Example 3: herbicidal effect by foliage application, Wagner pot (Table 18, symbol H); format: in vivo, barnyard grass (Echinochloa crus-galli); conditions: amount of applied herbicide 320 g/ha
Procedure, shortened: as §5

[12] = test system: redroot pigweed; test: Test Example 4: herbicidal effect by soil treatment (Table 19, symbol N); format: in vivo, redroot pigweed (Amaranthus retroflexus); conditions: amount of applied herbicide 320 g/ha
Procedure, shortened: as §3

[13] = test system: blackgrass; test: Test Example 5: herbicidal effect by foliage application, plastic box (Table 20, symbol J); format: in vivo, blackgrass (Alopecurus myosuroides); conditions: foliage application, AAH 320 g/ha, evaluated three weeks after application
Procedure, shortened: as §4

[14] = test system: wild oat; test: Test Example 5: herbicidal effect by foliage application, plastic box (Table 20, symbol I); format: in vivo, wild oat (Avena fatua); conditions: foliage application, AAH 320 g/ha, evaluated three weeks after application
Procedure, shortened: as §4

[15] = test system: Chinese sprangletop; test: Test Example 3: herbicidal effect by foliage application, Wagner pot (Table 18, symbol D); format: in vivo, chinese sprangletop (Leptochloa chinensis); conditions: amount of applied herbicide 320 g/ha
Procedure, shortened: as §5

[16] = test system: Italian ryegrass; test: Test Example 4: herbicidal effect by soil treatment (Table 19, symbol K); format: in vivo, Italian ryegrass (Lolium multiflorum); conditions: amount of applied herbicide 320 g/ha
Procedure, shortened: as §3

Compound | herbicidal effect rating, C: oval-leafed pondweed [1] | Herbicidal effect on B: Japanese bulrush (grade 0-5) [2] | Herbicidal effect on A: late watergrass (grade 0-5) [3] | herbicidal effect on L: windgrass [4] | herbicidal effect rating, A: late watergrass [5] | K: Italian ryegrass, herbicidal effect (criteria 0-5) [6] | herbicidal effect on E: rice flat sedge [7] | H: barnyard grass, herbicidal effect (criteria 0-5) [8] | N: redroot pigweed, herbicidal effect (criteria 0-5) [9] | G: green foxtail, herbicidal effect (criteria 0-5) [10] | herbicidal effect on H: barnyard grass [11] | herbicidal effect on N: redroot pigweed [12] | J: blackgrass, herbicidal effect (criteria 0-5) [13] | I: wild oat, herbicidal effect (criteria 0-5) [14] | herbicidal effect on D: Chinese sprangletop [15] | herbicidal effect on K: Italian ryegrass [16]
CCCC(=O)Oc1c(C)nn(C)c(=O)c1-c1c(-c2ccc(F)c(F)c2)sc2ccc(F)cc12 [2-345] | 4 (Herbicidal rate of 70% or more and less than 90%) | 4 (Herbicidal rate of 70% or more and less than 90%) | 4 (Herbicidal rate of 70% or more and less than 90%) | 0 (Herbicidal rate of 5% or less (almost no effect)) | 5 (Herbicidal rate of 90% or more (almost completely withered)) | 3 (Herbicidal rate of 40% or more and less than 70%) | 5 (Herbicidal rate of 90% or more (almost completely withered)) | 5 (Herbicidal rate of 90% or more (almost completely withered)) | 5 (Herbicidal rate of 90% or more (almost completely withered)) | 5 (Herbicidal rate of 90% or more (almost completely withered)) | 5 (Herbicidal rate of 90% or more (almost completely withered)) | 5 (Herbicidal rate of 90% or more (almost completely withered)) | 0 (Herbicidal rate of 5% or less (almost no effect)) | 3 (Herbicidal rate of 40% or more and less than 70%) | 5 (Herbicidal rate of 90% or more (almost completely withered)) | 0 (Herbicidal rate of 5% or less (almost no effect))
Cc1nn(C)c(=O)c(-c2c(-c3ccc(Cl)cc3F)sc3ccc(F)cc23)c1O [2-348] | 0 (Herbicidal rate of 5% or less (almost no effect)) | 3 (Herbicidal rate of 40% or more and less than 70%) | 2 (Herbicidal rate of 20% or more and less than 40%) | 0 (Herbicidal rate of 5% or less (almost no effect)) | 3 (Herbicidal rate of 40% or more and less than 70%) | 4 (Herbicidal rate of 70% or more and less than 90%) | 5 (Herbicidal rate of 90% or more (almost completely withered)) | 5 (Herbicidal rate of 90% or more (almost completely withered)) | 5 (Herbicidal rate of 90% or more (almost completely withered)) | 5 (Herbicidal rate of 90% or more (almost completely withered)) | 5 (Herbicidal rate of 90% or more (almost completely withered)) | 3 (Herbicidal rate of 40% or more and less than 70%) | 4 (Herbicidal rate of 70% or more and less than 90%) | 5 (Herbicidal rate of 90% or more (almost completely withered)) | 5 (Herbicidal rate of 90% or more (almost completely withered)) | 2 (Herbicidal rate of 20% or more and less than 40%)

— patent US20230085307A1, “PYRIDAZINONE COMPOUND AND HERBICIDE” (NISSAN CHEMICAL CORPORATION, priority 2019, published 2023)
